From paper PMC2706954, “Dissecting Structural and Functional Diversity of the Lantibiotic Mersacidin” (Chemistry & Biology, 2009)
Converted amounts (≈) assume the structure as drawn. “And” between values parts separate entries of the source, which are not always exact repeats. Equal entries are not always repeated. Where two headings read alike, the source gives them in different places. Where no end group is shown, it is not given here.

Tests used:
[1] = system: S. aureus R33 MRSA; type: cell-based, Staphylococcus aureus
Method: (§1) Antibacterial activity of fermentation samples or purified samples was determined by Mueller-Hinton Agar diffusion bioassays using M. luteus ATCC 4698 as the indicator strain. Susceptibility testing (minimum inhibitory concentration [MIC]) for all aerobic organisms, with the exception of S. pneumoniae, was performed following the recommendations of CLSI. Susceptibility testing of S. pneumoniae was performed by two-fold serial dilutions in brain-heart-infusion broth supplemented with 50 μg/ml Ca^2+. Vancomycin was used as a reference antibiotic, and plates were incubated aerobically, with shaking, for 18–20 hr at 37°C with the MIC defined as the lowest concentration of drug that prevented visible growth.

[2] = system: S. aureus SH1000; type: cell-based, Staphylococcus aureus
Method: as §1

[3] = system: S. pneumoniae BAA-255; type: cell-based, Streptococcus pneumoniae
Method: as §1

[4] = system: M. luteus ATCC4698; type: cell-based, Micrococcus luteus
Method: as §1

[5] = system: E. faecalis ATCC29212; type: cell-based
Method: as §1

[6] = system: E. faecium 7131121 VRE; type: cell-based
Method: as §1

[7] = system: E. faecium ATCC19579; type: cell-based
Method: as §1

[8] = system: S. epidermidis NCTC11047; type: cell-based
Method: as §1

[9] = system: panel of microorganisms (target strains); experiment: MIC determination against the panel of microorganisms (target strains); type: cell-based; settings: comparison with mersacidin or with parent single mutants
Method: Partially purified fermentation samples from clones expressing highly produced variants were assayed for antimicrobial activity against M. luteus. Samples were fractionated to eliminate interfering bioactive compounds produced by the host strain and were bioassayed (see Supplemental Data available online). Selected mersacidin variants with antibacterial activity against M. luteus were produced at larger scale for quantitative studies (2 l). The mersacidin variants were purified and assayed against a panel of microorganisms to determine the MIC values.
as §1

[10] = CLSI recommendations, incubated aerobically with shaking 18–20 hr at 37°C, MIC = lowest concentration preventing visible growth, purified variants

Row | MIC S. aureus R33 MRSA ([1]; R33) | MIC S. aureus SH1000 ([2]; SH1000) | MIC S. pneumoniae BAA-255 ([3]; BAA-255) [µg/mL] | MIC M. luteus ATCC4698 ([4]; ATCC4698) [µg/mL] | MIC E. faecalis ATCC29212 ([5]; ATCC29212) [µg/mL] | MIC E. faecium 7131121 VRE ([6]; 7131121 VRE) [µg/mL] | MIC E. faecium ATCC19579 ([7]; ATCC19579) [µg/mL] | MIC S. epidermidis NCTC11047 ([8]; NCTC11047) | Compound | MIC S. aureus R33 MRSA [1, 10] | MIC S. aureus SH1000 [2, 10] [µg/mL] | MIC S. pneumoniae BAA-255 ([3]; two-fold serial dilutions in brain-heart-infusion broth with 50 μg/ml Ca2+, 18–20 hr at 37°C, MIC = lowest concentration preventing visible growth) [µg/mL] | MIC M. luteus ATCC4698 [4, 10] [µg/mL] | MIC E. faecalis ATCC29212 [5, 10] [µg/mL] | MIC E. faecium 7131121 VRE ([6]; vancomycin-resistant clinical isolate, CLSI recommendations, 18–20 hr at 37°C, MIC = lowest concentration preventing visible growth) [µg/mL] | MIC E. faecium ATCC19579 [7, 10] [µg/mL] | MIC S. epidermidis NCTC11047 [8, 10] [µg/mL] | antibacterial activity, in words, compared with parent [9]
1 | 64, >64 μg/ml | >64 µg/mL | 16 (≈ 8.56 µM) | < 4 | >64 | >64 | >64 | 64 µg/mL (≈ 34.3 µM) | C=C1NC(=O)C2NC(=O)[C@H](CC(C)C)NC(=O)C(NC(=O)[C@@H]3CSC(C)C(NC(=O)[C@H](Cc4ccccc4)NC(=O)C4NC(=O)[C@@H](N)CSC4C)C(=O)N[C@@H](CC(C)C)C(=O)N4CCC[C@H]4C(=O)NCC(=O)NCC(=O)NCC(=O)N[C@@H](C(C)C)C(=O)N[C@@H](C(C)C)C(=O)N3)C(C)SC[C@H](NC(=O)[C@H](CCC(=O)O)NC1=O)C(=O)N[C@@H]([C@@H](C)CC)C(=O)NC=CSC2C (stereo partly shown) [G10V] |  |  |  |  |  |  |  |  | 
2 | 16 µg/mL (≈ 8.75 µM) | 64 µg/mL (≈ 35 µM) | 4 (≈ 2.19 µM) | 2 (≈ 1.09 µM) | 64 (≈ 35 µM) | >64 | 32 (≈ 17.5 µM) | 32 µg/mL (≈ 17.5 µM) | CC[C@H](C)[C@@H]1NC(=O)[C@@H]2CSC(C)C(NC(=O)[C@@H]3CSC(C)C(NC(=O)[C@H](Cc4ccccc4)NC(=O)C4NC(=O)[C@@H](N)CSC4C)C(=O)N[C@@H](CC(C)C)C(=O)N4CCC[C@H]4C(=O)NCC(=O)NCC(=O)NCC(=O)NCC(=O)N[C@@H](C(C)C)C(=O)N3)C(=O)N[C@@H](CC(C)C)C(=O)NC(C(=O)N[C@@H](C)C(=O)N[C@@H](CCC(=O)O)C(=O)N2)C(C)SC=CNC1=O (stereo partly shown) [S16A] |  |  |  |  |  |  |  |  | 
3 | 64, >64 μg/ml | >64 µg/mL | >64 | 8 (≈ 4.25 µM) | >64 | >64 | >64 | >64 µg/mL | C=C1NC(=O)C2NC(=O)[C@H](CC(C)C)NC(=O)C(NC(=O)[C@@H]3CSC(C)C(NC(=O)[C@H](Cc4ccccc4)NC(=O)C4NC(=O)[C@@H](N)CSC4C)C(=O)N[C@@H](CC(C)C)C(=O)N4CCC[C@H]4C(=O)NCC(=O)NCC(=O)NCC(=O)N[C@@H](CC(N)=O)C(=O)N[C@@H](C(C)C)C(=O)N3)C(C)SC[C@H](NC(=O)[C@H](CCC(=O)O)NC1=O)C(=O)N[C@@H]([C@@H](C)CC)C(=O)NC=CSC2C (stereo partly shown) [G10N] |  |  |  |  |  |  |  |  | 
4 | 8 µg/mL (≈ 4.35 µM) | 32 µg/mL (≈ 17.4 µM) | 32 (≈ 17.4 µM) | 1 (≈ 0.543 µM) | 32 (≈ 17.4 µM) | 64 (≈ 34.8 µM) | 32 (≈ 17.4 µM) | 16 µg/mL (≈ 8.69 µM) | CC=C1NC(=O)C2NC(=O)[C@H](CC(C)C)NC(=O)C(NC(=O)[C@@H]3CSC(C)C(NC(=O)[C@H](Cc4ccccc4)NC(=O)C4NC(=O)[C@@H](N)CSC4C)C(=O)N[C@@H](CC(C)C)C(=O)N4CCC[C@H]4C(=O)NCC(=O)NCC(=O)NCC(=O)NCC(=O)N[C@@H](C(C)C)C(=O)N3)C(C)SC[C@H](NC(=O)[C@H](CCC(=O)O)NC1=O)C(=O)N[C@@H]([C@@H](C)CC)C(=O)NC=CSC2C (stereo partly shown) [S16Db] |  |  |  |  |  |  |  |  | 
5 | 16 µg/mL (≈ 8.69 µM) | 32 µg/mL (≈ 17.4 µM) | 16 (≈ 8.69 µM) | 0.5 (≈ 0.272 µM) | 16 (≈ 8.69 µM) | 16 (≈ 8.69 µM) | 16 (≈ 8.69 µM) | 16 µg/mL (≈ 8.69 µM) | C=C1NC(=O)C2NC(=O)[C@H](CC(C)C)NC(=O)C(NC(=O)[C@@H]3CSC(C)C(NC(=O)[C@H](Cc4ccccc4)NC(=O)C4NC(=O)[C@@H](N)CSC4C)C(=O)N[C@@H](CC(C)C)C(=O)N4CCC[C@H]4C(=O)NCC(=O)NCC(=O)NCC(=O)NCC(=O)N[C@@H]([C@@H](C)CC)C(=O)N3)C(C)SC[C@H](NC(=O)[C@H](CCC(=O)O)NC1=O)C(=O)N[C@@H]([C@@H](C)CC)C(=O)NC=CSC2C (stereo partly shown) [V11I] |  |  |  |  |  |  |  |  | 
6 | 64, >64 μg/ml | >64 µg/mL | >64 | 64 (≈ 34.5 µM) | >64 | >64 | >64 | >64 µg/mL | C=C1NC(=O)C2NC(=O)[C@H](CC(C)C)NC(=O)C(NC(=O)[C@@H]3CSC(C)C(NC(=O)[C@H](Cc4ccccc4)NC(=O)C4NC(=O)[C@@H](N)CSC4C)C(=O)N[C@@H](CC(C)C)C(=O)N4CCC[C@H]4C(=O)NCC(=O)NCC(=O)N[C@@H](CO)C(=O)NCC(=O)N[C@@H](C(C)C)C(=O)N3)C(C)SC[C@H](NC(=O)[C@H](CCC(=O)O)NC1=O)C(=O)N[C@@H]([C@@H](C)CC)C(=O)NC=CSC2C (stereo partly shown) [G9S] |  |  |  |  |  |  |  |  | 
7 | 64, >64 μg/ml | >64 µg/mL | 8 (≈ 4.35 µM) | 8 (≈ 4.35 µM) | >64 | >64 | >64 | 64, >64 μg/ml | C=C1NC(=O)C2NC(=O)[C@H](CC(C)C)NC(=O)C(NC(=O)[C@@H]3CSC(C)C(NC(=O)[C@H](Cc4ccccc4)NC(=O)C4NC(=O)[C@@H](N)CSC4C)C(=O)N[C@@H](CC(C)C)C(=O)N4CCC[C@H]4C(=O)NCC(=O)NCC(=O)NCC(=O)N[C@@H](C)C(=O)N[C@@H](C(C)C)C(=O)N3)C(C)SC[C@H](NC(=O)[C@H](CCC(=O)O)NC1=O)C(=O)N[C@@H]([C@@H](C)CC)C(=O)NC=CSC2C (stereo partly shown) [G10A] |  |  |  |  |  |  |  |  | 

More lines, now with the values behind:

Row | Compound | MIC S. aureus R33 MRSA ([1]; R33) | MIC S. aureus SH1000 ([2]; SH1000) | MIC S. pneumoniae BAA-255 ([3]; BAA-255) [µg/mL] | MIC M. luteus ATCC4698 ([4]; ATCC4698) [µg/mL] | MIC E. faecalis ATCC29212 ([5]; ATCC29212) [µg/mL] | MIC E. faecium 7131121 VRE ([6]; 7131121 VRE) [µg/mL] | MIC E. faecium ATCC19579 ([7]; ATCC19579) [µg/mL] | MIC S. epidermidis NCTC11047 ([8]; NCTC11047) | MIC S. aureus R33 MRSA [1, 10] | MIC S. aureus SH1000 [2, 10] [µg/mL] | MIC S. pneumoniae BAA-255 ([3]; two-fold serial dilutions in brain-heart-infusion broth with 50 μg/ml Ca2+, 18–20 hr at 37°C, MIC = lowest concentration preventing visible growth) [µg/mL] | MIC M. luteus ATCC4698 [4, 10] [µg/mL] | MIC E. faecalis ATCC29212 [5, 10] [µg/mL] | MIC E. faecium 7131121 VRE ([6]; vancomycin-resistant clinical isolate, CLSI recommendations, 18–20 hr at 37°C, MIC = lowest concentration preventing visible growth) [µg/mL] | MIC E. faecium ATCC19579 [7, 10] [µg/mL] | MIC S. epidermidis NCTC11047 [8, 10] [µg/mL] | antibacterial activity, in words, compared with parent [9]
8 | C=C1NC(=O)C2NC(=O)[C@H](CC(C)C)NC(=O)C(NC(=O)[C@@H]3CSC(C)C(NC(=O)[C@H](Cc4ccccc4)NC(=O)C4NC(=O)[C@@H](N)CSC4C)C(=O)N[C@@H](CC(C)C)C(=O)N4CCC[C@H]4C(=O)NCC(=O)N[C@@H](CC(N)=O)C(=O)NCC(=O)NCC(=O)N[C@@H](C(C)C)C(=O)N3)C(C)SC[C@H](NC(=O)[C@H](CCC(=O)O)NC1=O)C(=O)N[C@@H]([C@@H](C)CC)C(=O)NC=CSC2C (stereo partly shown) [G8N] |  |  |  |  |  |  |  |  | 16 µg/mL and 32 µg/mL | >64 | >64 | 8 (≈ 4.25 µM) | >64 | >64 | >64 | 64 (≈ 34 µM) | 
9 | C=C1NC(=O)C2NC(=O)[C@H](CC(C)C)NC(=O)C(NC(=O)[C@@H]3CSC(C)C(NC(=O)[C@H](Cc4ccccc4)NC(=O)C4NC(=O)[C@@H](N)CSC4C)C(=O)N[C@@H](CC(C)C)C(=O)N4CCC[C@H]4C(=O)NCC(=O)N[C@@H](Cc4c[nH]cn4)C(=O)NCC(=O)NCC(=O)N[C@@H](C(C)C)C(=O)N3)C(C)SC[C@H](NC(=O)[C@H](CCC(=O)O)NC1=O)C(=O)N[C@@H]([C@@H](C)CC)C(=O)NC=CSC2C (stereo partly shown) [G8H] | 64 µg/mL (≈ 33.6 µM) | 64, >64 μg/ml | 16 (≈ 8.39 µM) | 8 (≈ 4.2 µM) | >64 | >64 | >64 | 64 µg/mL (≈ 33.6 µM) |  |  |  |  |  |  |  |  | 
10 | V11I-L14I (CTFTLPGGGGICTITSECIC; also: mersacidin methyllanthionine thioether bridges, not placed, C-terminal decarboxylated Cys (2-thioethenamine); UniProt P43683 49-68, looked up, variant V11I L14I) |  |  |  |  |  |  |  |  |  |  |  |  |  |  |  |  | comparable to those of the parent mutants
11 | F3W-L14I (CTWTLPGGGGVCTITSECIC; also: mersacidin methyllanthionine thioether bridges, not placed, C-terminal decarboxylated Cys (2-thioethenamine); UniProt P43683 49-68, looked up, variant F3W L14I) |  |  |  |  |  |  |  |  |  |  |  |  |  |  |  |  | comparable to those of the parent mutants
12 | C=C1NC(=O)C2NC(=O)[C@H](CC(C)C)NC(=O)C(NC(=O)[C@@H]3CSC(C)C(NC(=O)[C@H](Cc4ccccc4)NC(=O)C4NC(=O)[C@@H](N)CSC4C)C(=O)N[C@@H](CC(C)C)C(=O)N4CCC[C@H]4C(=O)NCC(=O)NCC(=O)N[C@@H](C)C(=O)NCC(=O)N[C@@H](C(C)C)C(=O)N3)C(C)SC[C@H](NC(=O)[C@H](CCC(=O)O)NC1=O)C(=O)N[C@@H]([C@@H](C)CC)C(=O)NC=CSC2C (stereo partly shown) [G9A] | 8 µg/mL (≈ 4.35 µM) | 32 µg/mL (≈ 17.4 µM) | 8 (≈ 4.35 µM) | < 4 | >64 | >64 | 64 (≈ 34.8 µM) | 32 µg/mL (≈ 17.4 µM) |  |  |  |  |  |  |  |  | 
